In the test the test system is Adenosine Diphosphate (ADP)-Induced Platelet Aggregation. The experiment in a line: Inhibitory Effect on Adenosine Diphosphate (ADP)-Induced Platelet Aggregation (turbidimetric method, platelet rich plasma). The test is classed as cell-based, Japanese White rabbit. Particulars: Oryctolagus cuniculus; rabbit platelet rich plasma; aggregation induced by 20 μM ADP; read-out: concentration at which the compound inhibited 50% of platelet aggregation (IC50). On the procedure:
Platelet rich plasma (PRP) was prepared from Japanese White rabbit blood drawn from the carotid artery into a syringe containing 3.8% sodium citrate (1/10) volume, and centrifuged at 400×g for 10 min. Platelet aggregation in PRP was induced by 20 μM ADP and determined by the turbidimetric method using an aggregomater (Hema-Tracer: Niko Bioscience Co., Ltd., Japan).

On to `O=C1CCc2c(ccc(N3CCC(O)CC3)c2Br)N1` [Compound 4, 5-Bromo-6-(4-hydroxypiperidino)-3,4-dihydrocarbostyril], for which the IC50 worked out at 140 µM. The figure for `O=C1CCc2cc(N3CCC(O)CC3)c([N+](=O)[O-])cc2N1` [Compound 1, 6-(4-Hydroxypiperidino)-7-nitro-3,4-dihydrocarbostyril] is 37 µM. The figure for `O=C1CCc2c(ccc(N3CCC(O)CC3)c2Cl)N1` [Compound 6, 5-Chloro-6-(4-hydroxypiperidino)-3,4-dihydrocarbostyril] is 290 µM; for `O=C1CCc2cc(N3CCC(O)CC3)c(Br)cc2N1` [Compound 3, 7-Bromo-6-(4-hydroxypiperidino)-3,4-dihydrocarbostyril] it is 26 µM. Regarding `O=C1CCc2cc(N3CCC(O)CC3)c(C(F)(F)F)cc2N1` [Compound 12, 6-(4-Hydroxypiperidino)-7-trifluoromethyl-3,4-dihydrocarbostyril], the IC50 was 39 µM. Under `CCC(=O)OC1CCN(c2cc3c(cc2[N+](=O)[O-])NC(=O)CC3)CC1` [Compound 11, 6-(4-Propionyloxypiperidino)-7-nitro-3,4-dihydrocabostyril] stands 37 µM; under `Cc1cc2c(cc1N1CCC(O)CC1)CCC(=O)N2` [Compound 9, 6-(4-Hydroxypiperidino)-7-methyl-3,4-dihydrocarbostyril], 130 µM; under `O=C1CCc2c(ccc(N3CCC(O)CC3)c2[N+](=O)[O-])N1` [Compound 2, 6-(4-Hydroxypiperidino)-5-nitro-3,4-dihydrocarbostyril], 55 µM. Turning to `COC(=O)c1cc2c(cc1N1CCC(O)CC1)CCC(=O)N2` [Compound 8, 6-(4-Hydroxypiperidino)-7-methoxycarbonyl-3,4-dihydrocarbostyril], the IC50 came to 42 µM. Under `O=C1CCc2cc(N3CCC(O)CC3)c(F)cc2N1` [Compound 10, 7-Fluoro-6-(4-hydroxypiperidino)-3,4-dihydrocarbostyril] stands 51 µM. As for `N#Cc1cc2c(cc1N1CCC(O)CC1)CCC(=O)N2` [Compound 7, 7-Cyano-6-(4-hydroxypiperidino)-3,4-dihydrocarbostyril], the IC50 was determined as 18 µM. Under `O=C1CCc2cc(N3CCC(O)CC3)c(Cl)cc2N1` [Compound 5, 7-Chloro-6-(4-hydroxypiperidino)-3,4-dihydrocarbostyril] stands 26 µM.

(Values after US5294718A, “Piperidino-3,4-dihydrocarbostyril compounds” (Kissei Pharmaceutical Co., Ltd., priority 1993, dated 1994).)
